# Literature values as cited in patent US8962847B2, “Multicomponent crystals made of ([2-amino-6-(4-fluoro-benzylamino)-pyridin-3-yl]-carbamic acid ethyl ester and an arylpropionic acid” (TEVA GmbH, priority 2010, dated 2015).
# Counter-ions that a name gives are not always drawn. Like-named read-outs stand apart in the source and are kept apart here.
# What was measured:
# [1] = system: pain, fever, inflammation; conditions: in vivo
# [2] = system: antinociceptive (pain perception inhibiting) activity; conditions: mice, flupirtine maleate 15 mg per kg with various dosages of NSAIDS
# [3] = system: antinociceptive (pain perception inhibiting) activity; conditions: rat, flupirtine maleate 35 mg per kg with various dosages of NSAIDS
Compound,beginning of action compared with the racemic mixture of ibuprofen [1],"effect on the antinociceptive activity of paracetamol, acetyl salicylic acid, and diclofenac [2]","effect on the antinociceptive activity of paracetamol, acetyl salicylic acid, and diclofenac [3]"
"CC(C)Cc1ccc([C@H](C)C(=O)O)cc1 [dexibuprofen, (+)-(2S)-2-[4-(2-methylpropyl)-phenyl]propanoic acid]",somewhat faster,–,–
CCOC(=O)Nc1ccc(NCc2ccc(F)cc2)nc1N [flupirtine maleate],–,enhances,enhances
